A short description of data set [1]: in vitro. The conditions noted are these: human, hela cells, % viability.
A short description of data set [2]: in vitro. Set-up: Viability of infected HeLa host cells, resazurin conversion, bulk resorufin fluorescence relative to DMSO. The conditions noted are these: human, hela cells; bulk resorufin, mean of 2.
Data set [3] has as its system T1, C. trachomatis L2/434/Bu expressing GFP (CTL2-GFP).
T1 construct: L2/434/Bu GFP intracellular growth in HeLa cells
The data set is described as follows: microbe, parasite or virus in culture. To be noted: Chlamydia trachomatis, HeLa, 28.5 h; total inclusion area; read-out: % of control remaining. Set-up: C. trachomatis total inclusion area by high-content imaging, normalised to DMSO. Put shortly:
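A 36,785-compound library was screened using bulk GFP and resorufin fluorescence, followed by Hoechst staining and high-content imaging of inclusions (GFP) and host nuclei. Inclusion area and number served as growth proxies and nuclei counts as a viability proxy. MICs were calculated from these readouts.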

Data set [4] has as its system T2, CTL2-GFP (C. trachomatis L2/434/Bu, GFP-expressing).
T2 construct: L2/434/Bu, GFP-expressing
The data set is described as follows: microbe, parasite or virus in culture. To be noted: Chlamydia trachomatis, HeLa, 28.5 h; bulk GFP, mean of 2; read-out: % of control remaining. Details: Intracellular C. trachomatis growth in HeLa cells, bulk GFP fluorescence relative to DMSO. As for the experimental part:
MICs were calculated as described above.

The values below come from article PMC12040169 (PLOS Biology, 2025).

The term viability denotes a read-out of living cells in per cent, often relative to untreated cells.

Regarding `CCc1nnc(NS(=O)(=O)c2ccc(NC(=O)COc3ccc(Cl)cc3Cl)cc2)s1` [CBK200050], the viability at 28.5 h, 10 µM in data set [1] is 108%. In data set [2], the viability at 28.5 h, 1 µM turned out to be 104%; the viability at 28.5 h, 5 µM turned out to be 96.7%; the viability at 28.5 h, 10 µM was determined as 98.4%. For the same compound, in data set [3], the activity at 1 µM came to 99.2%, the activity at 5 µM was found to be 67% and the activity at 10 µM stood at 37.8%. In data set [4], the activity at 1 µM worked out at 112%, the activity at 5 µM stood at 48.5% and the activity at 10 µM stood at 22.1%.

`CC1CC(C)CN(Cc2csc(NC(=O)Cc3ccc(Cl)cc3)n2)C1` (stereo not shown) [CBK306142]: in data set [1], the viability at 28.5 h, 10 µM amounted to 81.1%. Further, in data set [2], the viability at 28.5 h, 1 µM was determined as 87.7%; the viability at 28.5 h, 5 µM worked out at 91.3%; the viability at 28.5 h, 10 µM was 86%. Further, in data set [3], the activity at 1 µM was 140%, the activity at 5 µM came to 48.4% and the activity at 10 µM stood at 46.1%. In data set [4], the activity at 1 µM was 150%, the activity at 5 µM worked out at 112% and the activity at 10 µM turned out to be 75.2%.

Take `Cc1cc(NS(=O)(=O)c2ccc(NC(=S)NC(=O)C(C)(C)C)cc2)no1` [CBK268877]: the viability at 28.5 h, 10 µM in data set [1] was determined as 95.7%. For the same compound, in data set [2], the viability at 28.5 h, 1 µM is 93.4%; the viability at 28.5 h, 5 µM came out at 96.5%; the viability at 28.5 h, 10 µM was 99.1%. Moreover, in data set [3], the activity at 1 µM amounted to 74.7%, the activity at 5 µM was 64% and the activity at 10 µM came to 35.4%. In data set [4], the activity at 1 µM is 123%, the activity at 5 µM amounted to 78.8% and the activity at 10 µM is 33.7%.

As for `COc1ccc(C=CC(=O)Nc2sc3c(c2C(=O)O)CCCC3)cc1OC` [CBK296103], the viability at 28.5 h, 10 µM in data set [1] was determined as 117%. Besides, in data set [2], the viability at 28.5 h, 1 µM came out at 91.1%; the viability at 28.5 h, 5 µM stood at 87.4%; the viability at 28.5 h, 10 µM came out at 89.7%. For the same compound, in data set [3], the activity at 1 µM was determined as 117%, the activity at 5 µM was 69.8% and the activity at 10 µM amounted to 22.5%. Moreover, in data set [4], the activity at 1 µM was 118%, the activity at 5 µM was found to be 85.9% and the activity at 10 µM was 27.4%.

For `O=C(Nc1ccccc1N1CCCNCC1)c1ccc2ccccc2c1` [CBK038927T], the viability at 28.5 h, 10 µM in data set [1] worked out at 97.3%. Further, in data set [2], the viability at 28.5 h, 1 µM was determined as 115%; the viability at 28.5 h, 5 µM is 114%; the viability at 28.5 h, 10 µM amounted to 116%. Besides, in data set [3], the activity at 1 µM came to 84.9%, the activity at 5 µM was found to be 7.75% and the activity at 10 µM stood at 1.67%. In data set [4], the activity at 1 µM stood at 94.8%, the activity at 5 µM was 1.41% and the activity at 10 µM came out at 8.25%.

On to `CC(Cc1nc(-c2nccn2C)cs1)n1cc(Cl)cn1` (stereo not shown) [CBK304114], for which, in data set [1], the viability at 28.5 h, 10 µM is 90.1%. In data set [2], the viability at 28.5 h, 1 µM amounted to 108%; the viability at 28.5 h, 5 µM stood at 100%; the viability at 28.5 h, 10 µM came out at 105%. In data set [3], the activity at 1 µM turned out to be 97.2%, the activity at 5 µM was 15.4% and the activity at 10 µM was 7.1%. In addition, in data set [4], the activity at 1 µM was 79.3%, the activity at 5 µM was 21% and the activity at 10 µM was found to be 7.42%.

For `O=[N+]([O-])c1ccc2[nH]c3c(c2c1)CCCC3NC1CCN(CCc2ccccc2)CC1` (stereo not shown) [CBK262874], the viability at 28.5 h, 10 µM in data set [1] worked out at 77.1%. Further, in data set [2], the viability at 28.5 h, 1 µM is 91.5%; the viability at 28.5 h, 5 µM was 84.8%; the viability at 28.5 h, 10 µM is 76.1%. Further, in data set [3], the activity at 1 µM was 60.6%, the activity at 5 µM was found to be 15.1% and the activity at 10 µM was 3.02%. Also, in data set [4], the activity at 1 µM is 58.5%, the activity at 5 µM amounted to 25.9% and the activity at 10 µM worked out at 16.1%.
